# Experimental data published in patent US12338266B2 (GENETIC S.P.A., priority 2019, dated 2025).
# “Also recorded” adds a separate entry of the source.
# Assays:
# Assay type in all cases: in vivo, Balb/c mice
# [1] = system: mice with OVA-induced allergic asthma; experiment: Bronchial reactivity to carbachol, isolated bronchi of OVA-sensitized mice (Protocol-1)
# Procedure: Balb/c mice (8-9 weeks old, Charles River, Calco, Italy) were housed in the animal care facility at the Department of Pharmacy of the University of Naples. […] All animals were allowed to acclimate for four days prior to experiments and were subjected to 12 h light-12 h dark schedule. Each mouse was assigned an identity number and randomtzed to different groups so that all experiments were carried out in a blinded manner. The experimental procedures were approved by the Italian Ministry according to International and National law and policies (EU Directive 2010/63/EU and Italian DL 26/2014 for animal experiments, ARRIVE guidelines and the Basel declaration including the 3R concept). Animal studies are reported in compliance with the ARRIVE guidelines. Balb/c mice is the most widely mouse strain used to study asthma-like features in vivo and to investigate the undedying molecular and cellular mechanisms of allergen sensitization. Mice were treated subcutaneously (s.c.) with 0.4 mL (100 μg) of ovalbumin (OVA) complexed with alum (13 mg mL^−1) (OVA group) at day 0 and 7. Chicken egg-white ovalbumin (OVA: grade V. cat. A5503, Sigma Chemical Co., St. Louis, MO) was dissolved in sterile phosphate buffered saline (PBS) solution (250 μg/1 ml) and Al(OH)3 was added (at 13 mg/ml). This mix was used to induce the allergic sensitization of the animals by subcutaneous injection. OVA was dissolved at 3% in sterile PBS solution and this solution was nebulized (as the immunological challenges). At day 21 mice were exposed to OVA challenge for three days and then sacrificed. […] A group of animals was treated s.c. with saline (vehicle group). […] Animals were killed at selected time points by overdose of enflurane and bronchi and blood collected. Main bronchi were rapidly dissected and cleaned from fat and connective tissue. […] Results were expressed as dyne/mg tissue. In another set of experiments on bronchi pre-contracted with carbachol and salbutamol-induced relaxation was assessed.
# [2] = system: mice with OVA-induced allergic asthma; experiment: Salbutamol-induced relaxation of carbachol pre-contracted bronchi of OVA-sensitized mice (Protocol-1)
# Procedure: Balb/c mice (8-9 weeks old, Charles River, Calco, Italy) were housed in the animal care facility at the Department of Pharmacy of the University of Naples. […] All animals were allowed to acclimate for four days prior to experiments and were subjected to 12 h light-12 h dark schedule. Each mouse was assigned an identity number and randomtzed to different groups so that all experiments were carried out in a blinded manner. The experimental procedures were approved by the Italian Ministry according to International and National law and policies (EU Directive 2010/63/EU and Italian DL 26/2014 for animal experiments, ARRIVE guidelines and the Basel declaration including the 3R concept). Animal studies are reported in compliance with the ARRIVE guidelines. Balb/c mice is the most widely mouse strain used to study asthma-like features in vivo and to investigate the undedying molecular and cellular mechanisms of allergen sensitization. Mice were treated subcutaneously (s.c.) with 0.4 mL (100 μg) of ovalbumin (OVA) complexed with alum (13 mg mL^−1) (OVA group) at day 0 and 7. Chicken egg-white ovalbumin (OVA: grade V. cat. A5503, Sigma Chemical Co., St. Louis, MO) was dissolved in sterile phosphate buffered saline (PBS) solution (250 μg/1 ml) and Al(OH)3 was added (at 13 mg/ml). This mix was used to induce the allergic sensitization of the animals by subcutaneous injection. OVA was dissolved at 3% in sterile PBS solution and this solution was nebulized (as the immunological challenges). At day 21 mice were exposed to OVA challenge for three days and then sacrificed. […] A group of animals was treated s.c. with saline (vehicle group). […] Animals were killed at selected time points by overdose of enflurane and bronchi and blood collected. Main bronchi were rapidly dissected and cleaned from fat and connective tissue. Rings of 1-2 mm length were cut and mounted in 2.5 mL isolated organ baths containing Krebs solution, at 37° C., oxygenated (95% O2 and 5% CO2), and connected to an isometric force transducer (type 7000. Ugo Basile. Cornerio, Italy) associated to a Powerlab 800 (AD Instruments). Rings were initially stretched until a resting tension of 0.5 g and allowed to equilibrate for at least 30 min. In each experiment bronchial rings were previously challenged with acetylcholine (10^−6 M) until a reproducible response curve was obtained. Subsequently, after tissue washing, a cumulative concentration response curve to carbachol (10^−9-3×10^−6 M) was performed. Results were expressed as dyne/mg tissue. In another set of experiments on bronchi pre-contracted with carbachol and salbutamol-induced relaxation was assessed.
# [3] = system: mice with OVA-induced allergic asthma; experiment: Total and differential leukocyte counts in BAL fluid (Protocol-2)
# Procedure: Male Balb/c SPF mice (26*2 g, 6 week-old) were purchased from the animal house facilities at the Faculty of Medicine (University of Sāo Paulo, Brazil). They were group-housed in a temperature-controlled room at 22° C. with a 12/12-hour light/dark cycle and allowed free access to food and water. The study is in agreement with the Ethical Principles for Animal Research established by the Brazilian College for Animal Experimentation (COBEA). According to the internal laboratory rules, euthanasia will be performed if severe distress related to the test agents developed during the experiment. Mice were sensitized with two subcutaneous injections of 0.2 ml of OVA/Al(OH)3, with an interval of 7 days (Sham animals received the Al(OH)3 suspension in PBS with no OVA). Chicken egg-white ovalbumin (OVA; grade V, cat. A5503, Sigma Chemical Co., St. Louis, Mo.) was dissolved in sterile phosphate buffered saline (PBS) solution (50 μg/ml) and Al(OH)3 was added (at 8 mg/ml). This mix was used to induce the allergic sensitization of the animals by subcutaneous injection. OVA was dissolved at 1% in sterile PBS solution and this solution was nebulized (as the immunological challenges). Seven days after the second sensitization (i.e., 3rd week), the animals were nebulized twice a week with the 1% OVA solution (Sham and untreated OVA groups were nebulized with PBS) during 20 minutes for the next 4 weeks. Thirty minutes before the challenges (OVA nebulization) and daily during the next 4 weeks, mice were intra-nasally treated (10 μl/animal as 5 μl/nostril) with the respective compounds/vehicle. […] Animals were killed at selected time points by overdose of enflurane and BAL and blood collected.
# After Penh evaluation, the mice were anesthetized with inhaled isofluorane (5% v/v in O2) and blood samples were collected from the descending abdominal aorta. The mice were then euthanized by exsanguination and bronchoalveolar lavage (BAL) was performed by exposing and cannulating the trachea with a polyethylene tube (1 mm outer diameter) connected to a syringe. The lungs were washed by flushing 300 μL of heparin-containing PBS solution (20 UI/mL). The retrieved BAL lavage aliquots were obtained and the same procedure was repeated four additional times. The samples were centrifuged (1000 g for 10 min) and the cell pellet was resuspended in 200 μL of PBS solution, Total cell counts were determined using a Neubauer chamber, and differential counting was carried out in cytospin (Fanem Mod 2400; Sāo Paulo, Brazil) preparations stained with May-Grünwald dye. Leukocytes were classified based on morphological criteria.
smiles,measurement,setting,value
CC(C)(O)c1ccccc1CCC(SCC1(CC(=O)OCC(=O)[C@@]23O[C@H](C4CCCCC4)O[C@@H]2C[C@H]2[C@@H]4CCC5=CC(=O)C=C[C@]5(C)[C@H]4[C@@H](O)C[C@@]23C)CC1)c1cccc(/C=C/c2ccc3ccc(Cl)cc3n2)c1 (stereo partly drawn) [montelukast desisobutyryl-ciclesonide ester],control of bronchial hyper-reactivity (response to carbachol),"[1]; 0.5, 1 and 2 mg/Kg i.p. 1 hour before OVA challenge, FIG. 5A",good control of bronchial hyper-reactivity at all doses tested
same,"control of hyper-reactivity to carbachol, compared to ciclesonide","[1]; ester 2 mg/kg i.p. vs ciclesonide 1 mg/kg, FIG. 6A",major efficacy in the control of the development of hyper-reactivity to carbachol
same,"effect on bronchial hyper-responsiveness, ester versus montelukast","[1]; ester 2 mg/kg i.p. vs montelukast 1 mg/kg, FIG. 7A",comparable
same,salbutamol-induced relaxation compared to vehicle,[2]; 2 mg/Kg i.p.,further increase in salbutamol-induced relaxation when compared to vehicle
same,salbutamol-induced bronchial relaxation,"[2]; 0.5, 1 and 2 mg/Kg i.p., FIG. 5B",rescued salbutamol ability to inducing bronchial relaxation at all doses tested
same,"preserving salbutamol induced bronchial relaxation, compared to ciclesonide",[2]; ester 2 mg/kg i.p. vs ciclesonide 1 mg/kg,significant major efficacy in preserving salbutamol induced bronchial relaxation
same,"preserving salbutamol relaxation, ester versus montelukast","[2]; ester 2 mg/kg i.p. vs montelukast 1 mg/kg, FIG. 7B",significantly enhanced
same,inhibition of eosinophil recruitment to the lungs at the lowest dose tested,"[3]; 10 nmol/animal/day, comparable with ciclesonide alone at 100 nmol/animal/day",significant effects
same,BAL eosinophils (OVA-induced increase),"[3]; 10, 30 and 100 nmol/animal/day intranasal, 4 weeks, FIG. 10",did not reach statistical significance; also recorded: lower number of eosinophils
